In brackets after ≈: the same amount, converted by molar mass.
Legend:
[1] = test system: Mycobacterium tuberculosis; experiment: Antimycobacterial activity against Mycobacterium tuberculosis H37Rv ATCC 27294 by broth dilution method; assay type: functional
J774 [2] = experiment: Cytotoxicity against mouse J774 cells at 20 ug/ml after 24 hrs by MTT assay; assay type: cell-based; settings: j774, 24 h
J774 [3] = experiment: Cytotoxicity against mouse J774 cells after 24 hrs by MTT assay; assay type: cell-based; settings: J774, 24 h
[4] = Selectivity index, ratio of IC50 for mouse J774 cells to MIC for Mycobacterium tuberculosis H37Rv ATCC 27294; assay type: toxicity, cell-based; settings: read-out: Selectivity Index
[5] = test system: Mycobacterium tuberculosis; experiment: Antimycobacterial activity against Mycobacterium tuberculosis H37Rv ATCC 27294 infected in mouse J774 cells assessed as intracellular killing after 48 hrs by colony formation assay; assay type: functional; settings: H37Rv ATCC 27294, 48 h
[6] = test system: Mycobacterium tuberculosis; experiment: Bactericidal activity against Mycobacterium tuberculosis H37Rv ATCC 27294 by broth dilution method; assay type: functional

Structure (SMILES)	MIC [1] [µM]	other results
O=C(NCCCCc1ccccc1)c1cc([N+](=O)[O-])cc([N+](=O)[O-])c1	0.35 (≈ 0.12 µg/mL)	–
COc1ccc([C@H](C)NC(=O)c2cc([N+](=O)[O-])cc([N+](=O)[O-])c2)cc1	0.35 (≈ 0.121 µg/mL)	–
C[C@@H](NC(=O)c1cc([N+](=O)[O-])cc([N+](=O)[O-])c1)c1ccccc1	0.19 (≈ 0.0599 µg/mL)	Activity (J774 [2]): Non-toxic; IC50 (J774 [3]): > 63.5 µM; selectivity ratio [4]: > 333; MIC [5]: 0.76 µM (≈ 0.24 µg/mL); MBC [6]: 0.19 µM (≈ 0.0599 µg/mL)
C[C@H](NC(=O)c1cc([N+](=O)[O-])cc([N+](=O)[O-])c1)c1ccccc1	> 3.17	–
CC[C@@H](NC(=O)c1cc([N+](=O)[O-])cc([N+](=O)[O-])c1)c1ccccc1	0.76 (≈ 0.25 µg/mL)	–
CC[C@H](NC(=O)c1cc([N+](=O)[O-])cc([N+](=O)[O-])c1)c1ccccc1	3.04 (≈ 1 µg/mL)	–
CCC[C@@H](NC(=O)c1cc([N+](=O)[O-])cc([N+](=O)[O-])c1)c1ccccc1	2.91 (≈ 0.999 µg/mL)	–
CC[C@@H](C)NC(=O)c1cc([N+](=O)[O-])cc([N+](=O)[O-])c1	1.87 (≈ 0.5 µg/mL)	–
CC[C@H](C)NC(=O)c1cc([N+](=O)[O-])cc([N+](=O)[O-])c1	> 3.74	–
CCCCC[C@@H](C)NC(=O)c1cc([N+](=O)[O-])cc([N+](=O)[O-])c1	1.62 (≈ 0.501 µg/mL)	–
CCCCC[C@H](C)NC(=O)c1cc([N+](=O)[O-])cc([N+](=O)[O-])c1	1.62 (≈ 0.501 µg/mL)	–
CCCCCCNC(=O)c1cc([N+](=O)[O-])cc([N+](=O)[O-])c1	1.69 (≈ 0.499 µg/mL)	–
CCCCCCCCCCCCCCCCNC(=O)c1cc([N+](=O)[O-])cc([N+](=O)[O-])c1	0.57 (≈ 0.248 µg/mL)	–
O=C(NCCc1ccccc1)c1cc([N+](=O)[O-])cc([N+](=O)[O-])c1	0.79 (≈ 0.249 µg/mL)	Activity (J774 [2]): Non-toxic; IC50 (J774 [3]): > 63.5 µM; selectivity ratio [4]: > 80; MIC [5]: 3.16 µM (≈ 0.996 µg/mL); MBC [6]: 0.79 µM (≈ 0.249 µg/mL)
Cc1ccc(CNC(=O)c2cc([N+](=O)[O-])c(C)c([N+](=O)[O-])c2)cc1	0.09 (≈ 0.0296 µg/mL)	–
Cc1ccc(CNC(=O)c2cc([N+](=O)[O-])cc([N+](=O)[O-])c2)cc1	3.17 (≈ 0.999 µg/mL)	–
O=C(NCc1ccccc1)c1cc([N+](=O)[O-])cc([N+](=O)[O-])c1	0.8 (≈ 0.241 µg/mL)	–
Cc1ccc(CCNC(=O)c2cc([N+](=O)[O-])cc([N+](=O)[O-])c2)cc1	1.52 (≈ 0.501 µg/mL)	–
O=C(NCCCc1ccccc1)c1cc([N+](=O)[O-])cc([N+](=O)[O-])c1	1.52 (≈ 0.501 µg/mL)	–
O=C(Nc1ccc(OC(F)(F)F)cc1)c1cc([N+](=O)[O-])cc([N+](=O)[O-])c1	2.7 (≈ 1 µg/mL)	–
O=C(Nc1ccc(C(F)(F)F)cc1)c1cc([N+](=O)[O-])cc([N+](=O)[O-])c1	2.82 (≈ 1 µg/mL)	–
O=C(Nc1ccccc1C(F)(F)F)c1cc([N+](=O)[O-])cc([N+](=O)[O-])c1	1.41 (≈ 0.501 µg/mL)	–
O=C(Nc1cccc(F)c1)c1cc([N+](=O)[O-])cc([N+](=O)[O-])c1	3.28 (≈ 1 µg/mL)	–
C[C@H](c1ccccc1)N(C)C(=O)c1cc([N+](=O)[O-])cc([N+](=O)[O-])c1	1.52 (≈ 0.501 µg/mL)	–
O=C(Nc1ccc(F)cc1)c1cc([N+](=O)[O-])cc([N+](=O)[O-])c1	> 1.63	–

— ChEMBL document CHEMBL3132797, “Synthesis and biological evaluation of substituted N-alkylphenyl-3,5-dinitrobenzamide analogs as anti-TB agents” (Medchemcomm, 2014)
